Source: ChEMBL document CHEMBL4613226, “Drug Metabolism by the Mitochondrial Amidoxime Reducing Component (mARC): Rapid Assay and Identification of New Substrates” (J Med Chem, 2020)
Blank lines part the entries; values can stand above or below the compound they belong to.

How the values were obtained:
Type in all cases: ADME
[1] = target: T1, Mitochondrial amidoxime reducing component 2 (Homo sapiens, UniProt Q969Z3); assay: Substrate activity at human mARC2 expressed in Escherichia coli assessed as turnover rates at 3 mM pre-incubated for 3 mins followed by NADH addition and measured after 15 mins by LC-MS analysis based assay; details: 0.25 h, 3000 µM
T1 sequence (Q969Z3 whole entry): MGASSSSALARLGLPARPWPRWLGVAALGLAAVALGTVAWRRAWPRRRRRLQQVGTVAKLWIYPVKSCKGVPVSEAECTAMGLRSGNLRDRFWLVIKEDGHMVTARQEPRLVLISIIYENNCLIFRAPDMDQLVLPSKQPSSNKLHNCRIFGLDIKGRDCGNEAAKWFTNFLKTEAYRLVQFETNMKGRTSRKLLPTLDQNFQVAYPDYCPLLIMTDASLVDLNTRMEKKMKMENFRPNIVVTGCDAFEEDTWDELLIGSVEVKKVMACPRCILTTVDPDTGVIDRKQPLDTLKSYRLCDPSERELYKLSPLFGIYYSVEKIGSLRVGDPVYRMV

[2] = target: T1, Mitochondrial amidoxime reducing component 2; assay: Substrate activity at human mARC2 expressed in Escherichia coli assessed as turnover rates at 3 mM pre-incubated for 3 mins followed by NADH addition and measured after 15 mins by UV-Visible spectroscopy based NADH assay; details: 0.25 h, 3000 µM
[3] = target: T2, Mitochondrial amidoxime-reducing component 1 (Homo sapiens, UniProt Q5VT66); assay: Substrate activity at human mARC1 expressed in Escherichia coli assessed as turnover rates at 3 mM pre-incubated for 3 mins followed by NADH addition and measured after 15 mins by LC-MS analysis based assay; details: 0.25 h, 3000 µM
T2 sequence (Q5VT66 whole entry): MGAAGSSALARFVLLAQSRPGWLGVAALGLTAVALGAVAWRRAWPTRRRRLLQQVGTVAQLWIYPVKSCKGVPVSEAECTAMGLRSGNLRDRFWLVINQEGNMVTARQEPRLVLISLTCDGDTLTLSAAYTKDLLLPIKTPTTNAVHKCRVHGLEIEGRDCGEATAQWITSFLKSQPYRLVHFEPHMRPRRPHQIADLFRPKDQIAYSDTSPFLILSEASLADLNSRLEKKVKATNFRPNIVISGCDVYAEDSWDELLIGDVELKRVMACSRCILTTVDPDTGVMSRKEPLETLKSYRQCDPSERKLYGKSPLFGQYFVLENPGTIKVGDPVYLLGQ

[4] = target: T2, Mitochondrial amidoxime-reducing component 1; assay: Substrate activity at human mARC1 expressed in Escherichia coli assessed as turnover rates at 3 mM pre-incubated for 3 mins followed by NADH addition and measured after 15 mins by UV-Visible spectroscopy based NADH assay; details: 0.25 h, 3000 µM
[5] = target: T2, Mitochondrial amidoxime-reducing component 1; assay: Substrate activity at human mARC1 expressed in Escherichia coli assessed as turnover rates at 1 mM pre-incubated for 3 mins followed by NADH addition and measured after 15 mins by LC-MS analysis based assay; details: 0.25 h, 1000 µM
[6] = target: T2, Mitochondrial amidoxime-reducing component 1; assay: Substrate activity at human mARC1 expressed in Escherichia coli assessed as turnover rates at 1 mM pre-incubated for 3 mins followed by NADH addition and measured after 15 mins by UV-Visible spectroscopy based NADH assay; details: 0.25 h, 1000 µM
[7] = target: T1, Mitochondrial amidoxime reducing component 2; assay: Substrate activity at human mARC2 expressed in Escherichia coli assessed as turnover rates at 1 mM pre-incubated for 3 mins followed by NADH addition and measured after 15 mins by LC-MS analysis based assay; details: 0.25 h, 1000 µM
[8] = target: T1, Mitochondrial amidoxime reducing component 2; assay: Substrate activity at human mARC2 expressed in Escherichia coli assessed as turnover rates at 1 mM pre-incubated for 3 mins followed by NADH addition and measured after 15 mins by UV-Visible spectroscopy based NADH assay; details: 0.25 h, 1000 µM
[9] = target: T1, Mitochondrial amidoxime reducing component 2; assay: Substrate activity at human mARC2 expressed in Escherichia coli assessed as turnover rates at 200 uM pre-incubated for 3 mins followed by NADH addition and measured after 15 mins by LC-MS analysis based assay; details: 0.25 h
[10] = target: T1, Mitochondrial amidoxime reducing component 2; assay: Substrate activity at human mARC2 expressed in Escherichia coli assessed as turnover rates at 200 uM pre-incubated for 3 mins followed by NADH addition and measured after 15 mins by UV-Visible spectroscopy based NADH assay; details: 0.25 h
[11] = target: T2, Mitochondrial amidoxime-reducing component 1; assay: Substrate activity at human mARC1 expressed in Escherichia coli assessed as turnover rates at 200 uM pre-incubated for 3 mins followed by NADH addition and measured after 15 mins by UV-Visible spectroscopy based NADH assay; details: 0.25 h
[12] = target: T2, Mitochondrial amidoxime-reducing component 1; assay: Substrate activity at human mARC1 expressed in Escherichia coli assessed as turnover rates at 200 uM pre-incubated for 3 mins followed by NADH addition and measured after 15 mins by LC-MS analysis based assay; details: 0.25 h
[13] = target: T2, Mitochondrial amidoxime-reducing component 1; assay: Substrate activity at human mARC1 expressed in Escherichia coli assessed as turnover rates at 500 uM pre-incubated for 3 mins followed by NADH addition and measured after 15 mins by UV-Visible spectroscopy based NADH assay; details: 0.25 h
[14] = target: T1, Mitochondrial amidoxime reducing component 2; assay: Substrate activity at human mARC2 expressed in Escherichia coli assessed as turnover rates at 500 uM pre-incubated for 3 mins followed by NADH addition and measured after 15 mins by LC-MS analysis based assay; details: 0.25 h
[15] = target: T2, Mitochondrial amidoxime-reducing component 1; assay: Substrate activity at human mARC1 expressed in Escherichia coli assessed as turnover rates at 500 uM pre-incubated for 3 mins followed by NADH addition and measured after 15 mins by LC-MS analysis based assay; details: 0.25 h
[16] = target: T1, Mitochondrial amidoxime reducing component 2; assay: Substrate activity at human mARC2 expressed in Escherichia coli assessed as turnover rates at 500 uM pre-incubated for 3 mins followed by NADH addition and measured after 15 mins by UV-Visible spectroscopy based NADH assay; details: 0.25 h

SMILES: CN(CCCC(=O)c1cccnc1)N=O
Activity ([1]; BLD = below limit of detection): Bld
Activity ([2]; BLD = below limit of detection): Bld
Activity ([3]; BLD = below limit of detection): Bld
Activity ([4]; BLD = below limit of detection): Bld

SMILES: OC[C@H]1O[C@@H](n2cnc3c(NO)ncnc32)[C@H](O)[C@@H]1O
Activity [5]: 954.5 nmol/mg/min
Activity [6]: 845.7 nmol/mg/min
Activity [7]: 291 nmol/mg/min
Activity [8]: 271.6 nmol/mg/min

SMILES: NC(=O)c1ccc[n+]([O-])c1
Activity ([1]; BLD = below limit of detection): Bld
Activity ([2]; BLD = below limit of detection): Bld
Activity [3]: 239.3 nmol/mg/min
Activity [4]: 209.9 nmol/mg/min

SMILES: C=C1C(=O)O[C@@H]2CC[N+]3([O-])CC=C(COC(=O)[C@](C)(O)[C@H](C)[C@H]1C)[C@H]23 (stereo not given in full)
Activity [5]: 17.6 nmol/mg/min
Activity [6]: 12.7 nmol/mg/min
Activity ([7]; BLD = below limit of detection): Bld
Activity ([8]; BLD = below limit of detection): Bld

SMILES: C[N+](C)([O-])CCC=C1c2ccccc2CCc2ccccc21 [AMITRIPTYLINOXIDE]
Activity ([1]; BLD = below limit of detection): Bld
Activity ([2]; BLD = below limit of detection): Bld
Activity [3]: 3.1 nmol/mg/min
Activity [4]: 9.5 nmol/mg/min

SMILES: NC(=NO)c1ccccc1 [BENZAMIDOXIME]
Activity [1]: 373.9 nmol/mg/min
Activity [2]: 394.3 nmol/mg/min
Activity [3]: 549.6 nmol/mg/min
Activity [4]: 499.8 nmol/mg/min

SMILES: NS(=O)(=O)NCCNc1nonc1C(=NO)Nc1ccc(F)c(Br)c1 [EPACADOSTAT]
Activity [9]: 17.9 nmol/mg/min
Activity [10]: 24.3 nmol/mg/min
Activity [11]: 10.4 nmol/mg/min
Activity [12]: 4.1 nmol/mg/min

SMILES: O=CN(O)CCCP(=O)([O-])O.[Na+] [FOSMIDOMYCIN SODIUM]
Activity [2]: 27.8 nmol/mg/min
Activity [4]: 7.2 nmol/mg/min

SMILES: N=C(NO)N/N=C/c1c(Cl)cccc1Cl [GUANOXABENZ]
Activity [13]: 951.2 nmol/mg/min
Activity [14]: 967.5 nmol/mg/min
Activity [15]: 988 nmol/mg/min
Activity [16]: 947.1 nmol/mg/min

Further lines, results first:

Activity [2]: 34.4 nmol/mg/min
Activity [4]: 471.5 nmol/mg/min
SMILES: NC(=O)NO [HYDROXYUREA]

Activity ([13]; BLD = below limit of detection): Bld
Activity ([14]; BLD = below limit of detection): Bld
Activity ([15]; BLD = below limit of detection): Bld
Activity ([16]; BLD = below limit of detection): Bld
SMILES: Cc1oncc1C(=O)Nc1ccc(C(F)(F)F)cc1 [LEFLUNOMIDE]

Activity [1]: 184.2 nmol/mg/min
Activity [2]: 142.1 nmol/mg/min
Activity [3]: 354.8 nmol/mg/min
Activity [4]: 354.7 nmol/mg/min
SMILES: O=c1nc(NO)ccn1[C@@H]1O[C@H](CO)[C@@H](O)[C@H]1O [N-HYDROXYCYTIDINE]

Activity ([1]; BLD = below limit of detection): Bld
Activity ([2]; BLD = below limit of detection): Bld
Activity ([3]; BLD = below limit of detection): Bld
Activity ([4]; BLD = below limit of detection): Bld
SMILES: Cc1cn([C@H]2C[C@H](N=[N+]=[N-])[C@@H](CO)O2)c(=O)[nH]c1=O [ZIDOVUDINE]

Activity [5]: 2.3 nmol/mg/min
Activity [6]: 6.1 nmol/mg/min
Activity [7]: 0.9 nmol/mg/min
Activity [8]: 8.3 nmol/mg/min
SMILES: CC(c1cc2ccccc2s1)N(O)C(N)=O (stereo not given) [ZILEUTON]

Activity ([9]; BLD = below limit of detection): Bld
Activity ([10]; BLD = below limit of detection): Bld
Activity ([11]; BLD = below limit of detection): Bld
Activity ([12]; BLD = below limit of detection): Bld
SMILES: O=C1Cc2cc(CCN3CCN(c4nsc5ccccc45)CC3)c(Cl)cc2N1 [ZIPRASIDONE]

Activity ([5]; BLD = below limit of detection): Bld
Activity ([6]; BLD = below limit of detection): Bld
Activity ([7]; BLD = below limit of detection): Bld
Activity ([8]; BLD = below limit of detection): Bld
SMILES: NS(=O)(=O)Cc1noc2ccccc12 [ZONISAMIDE]
